# Laboratory results published in patent publication US8043422B2, “Combinations of phenylpyrroles and pyrion compounds” (Janssen Pharmaceutica, NV, priority 2008, dated 2011).
# Where two headings read alike, the source gives them in different places.
# Columns and labels:
# Assay type in all cases: cell-based
# [1] = test system: Ulocladium atrum IMI214699a; test: Poison Plate Assay, fungi
# Procedure: (§1) • Test models: • Fungi: to each well of a 24-well microtiter plate, 1000 μl of a rich (Potato Dextrose Agar, PDA: 4 g potato infusion, 20 g bacto dextrose and 15 g bacto agar in 1 liter deionised water) or poor (Glucose Agar, GA: 10 g glucose, 1.5 g K2HPO4, 2 g KH2PO4, 1 g (NH4)2SO4, 0.5 g MgSO4 and 12.5 g agar in 1 liter deionised water) medium containing the appropriate combination of the test compounds in one of the concentrations of a dose series is added. The nutrient medium is inoculated with the test fungi by adding a spore/mycelium suspension (10 μl) or a small piece of agar from the margin of an actively growing colony and incubated under dark at 27° C. with 70% relative humidity. The growth of the fungi is evaluated after two weeks. • Glucose agar was used in some experiments instead of PDA (Potato Dextrose Agar), as an alternative, poorer medium for the fungi, in order to increase the chances of detecting activity in compounds like fludioxonil, whose mode of action could be partly circumvented by fungi on a richer medium (Copping, L. and Hewitt, G. (1998) “Chemistry and mode of action of crop protection agents.” The Royal Society of Chemistry, Cambridge. 145 pp.). • Bacteria: to each well of a 24-well microtiter plate, 1000 μL Tryptose Agar (TA, 20 g bacto tryptose agar, 5 g sodium chloride, 1 g bacto dextrose and 15 g agar in 1 liter deionised water), containing the test compounds in one of the concentrations of a dose series is added. The nutrient medium is inoculated by adding 10 μl of an actively growing liquid culture of the test bacteria in tryptose broth (without agar), and incubated under dark at 27° C. with 70% relative humidity. Growth is evaluated after five days. • Concentrations: • MIC values for single compounds were collected from previous screening experiments. These MIC values were used as a guide in determining of the most suitable test dose ranges. • Synergy experiment with bispyrithione: • 25.00-18.75-14.06-10.55-7.91-5.93-4.45-3.34-2.50-1.88-1.41-1.06 ppm • Synergy experiment with sodium pyrithione: • 10.00-7.50-5.63-4.22-3.16-2.37-1.78-1.33-1.00-0.75-0.56-0.42 ppm Test combinations:
# (§2) (2000) “Measuring synergy” cosmetics & Toiletries 115(11): 59-62; and Lada, A., A. N. Petrocci, H. A. Green, and J. J. Merianos (1977) “Antimicrobial composition” U.S. Pat. No. 4,061,750, 3 pp.):
# (§3) [formula] wherein: • QA is the concentration of compound A in ppm, acting alone, which produced an end point (e.g. MIC), • Qa is the concentration of compound A in ppm, in the mixture, which produced an end point (e.g. MIC), • QB is the concentration of compound B in ppm, acting alone, which produced an end point (e.g. MIC), • Qb is the concentration of compound B in ppm, in the mixture, which produced an end point (e.g. MIC). […]
# [2] = test system: Coriolus versicolor CTB863A; test: Poison Plate Assay, fungi; details: Trametes versicolor, 336 h, read-out: MIC-values (minimum inhibitory concentration) in ppm
# Procedure: as §1, §2, §3
# [3] = test system: Staphylococcus aureus (g+) LMG 8064; test: Poison Plate Assay, bacteria; details: for MIC: LMG8064, 120 h, read-out: MIC-values (minimum inhibitory concentration) in ppm; for MIC-values (minimum inhibitory concentration) in ppm: fludioxonil (I-a) with sodium pyrithione (II-h)
# Procedure: as §1, §2, §3
# [4] = ppm total active ingredient, Tryptose Agar, 27° C., growth evaluated after five days
SMILES,"MIC ([1]; Alternaria atra, IMI214699A, 336 h, read-out: MIC-values (minimum inhibitory concentration) in ppm) [µg/mL]",MIC [2] [µg/mL],MIC [3] [µg/mL],"MIC-values (minimum inhibitory concentration) in ppm [3, 4] [ppm]","MIC ([2]; Coriolus versicolor, fludioxonil (I-a) with pyrion disulfide (II-g), ppm total active ingredient, 27° C., growth evaluated after two weeks) [µg/mL]","MIC ([3]; fludioxonil (I-a) with pyrion disulfide (II-g), ppm total active ingredient, Tryptose Agar, 27° C., growth evaluated after five days) [µg/mL]","MIC-values (minimum inhibitory concentration) in ppm ([1]; Ulocladium atrum, fludioxonil (I-a) with sodium pyrithione (II-h), ppm total active ingredient, 27° C., growth evaluated after two weeks) [ppm]"
"N#Cc1c[nH]cc1-c1cccc2c1OC(F)(F)O2 [fludioxonil (I-a), 4-(2,2-difluoro-1,3-benzodioxol-4-yl)-1H-pyrrole-3-carbonitrile]",100,40,40,40.00,,,
"[O-][n+]1ccccc1SSc1cccc[n+]1[O-] [pyrion disulfide (II-g), pyrion disulfide]",,,,,18.8,4.45,
"[Na+].[O-][n+]1ccccc1[S-] [sodium pyrithione (II-h), sodium pyrithione]",,,,4.22,,,2.37
